Measured values taken from article PMC5905968, “Evaluation of the fusion inhibitor P3 peptide as a potential microbicide to prevent HIV transmission in women” (PLoS ONE, 2018).

Key:
[1] = tested on: vaginal epithelium of BALB/c mice; experiment: BALB/c mice vaginal irritation test with histological score; format: in vivo; design: key to Epithelial lesion / Inflammatory infiltrate / Vascular congestion / Edema/fibrosis / Total Score: 0 (no change) when no injury or the observed changes were within normal range; 1 (minimum) when changes were sparse but exceeded those considered normal; 2 (light) when injuries were identifiable but with no severity; 3 (moderate) for significant injury that could increase in severity; 4 (very serious) for very serious injuries that occupy most of the analyzed tissue; conditions: for Edema/fibrosis / Epithelial lesion / Inflammatory infiltrate / Vascular congestion / Total Score: 3% N9 intravaginally, 7 days (irritation control); for Total Score: sum of the four lesion scores
Method: Female BALB/c mice (6–8 weeks-old) (Charles River Laboratories, Wilmington, MA) were pretreated subcutaneously with 2mg of medroxyprogesterone acetate (Depo-Provera; Pfizer, NY, USA) in PBS (Lonza, Verviers, Belgium). After five days, 30μl of test formulation with different doses of P3 diluted in PBS was applied intravaginally daily for 7 days by vaginal gavage to animals previously anesthetized with isoflurane (Forane, Abbott, Madrid). Controls included mice that received PBS (placebo group) and 3% nonoxynol-9 (N9) in PBS (irritation control group). On the eighth day, mice were sacrificed and genital tract tissue were extracted and fixed in 4% paraformaldehyde for histological analysis. The animals were distributed in groups of three mice each: group placebo only treated with PBS (1–3), group A treated with dose of 0.06mg/day ([…]) of P3 in PBS (4–6), group B treated with dose of 0.2mg/day (1522.7 μM) of P3 in PBS (7–9), group C treated with dose of 0.4mg/day (3045.3 μM) of P3 in PBS (10–12) and group irritation control treated with 3% N9 in PBS (13–15).
The presence of histological lesions in the mouse vaginas was evaluated with hematoxylin-eosin staining. Samples were embedded in paraffin by submersion in increasing concentrations of ethanol in water (Rectapur, VWR, England), two baths of xylene (Analar (VWR, England) and another of paraffin, before being placed in a paraffin mold. Subsequently, they were cut using a semimotorized microtome (RM2145 Leica, Germany) and processed for staining. For dewaxing, samples were submersed into two baths of xylene solution (10 min) and three baths in descending order of ethanol (100%, 90% and 70%) (5 min), before being stained with hematoxylin (Merck, Germany) for 5 min and eosin (Merck, Germany) for another 5 min. Post-eosin staining dehydration was performed with passages in increasing concentrations of ethanol (70%, 90% and 100%) and a bath of xylene solution. Finally, they were mounted with D.P.X. (Prolabo, VWR, Spain).
The existence of injury in vaginal epithelium, inflammatory infiltrate, vascular congestion and/or edema in the submucosa was evaluated in each biological sample. The values (score) assigned for each of these lesions were: 0 (no change) when no injury or the observed changes were within normal range; 1 (minimum) when changes were sparse but exceeded those considered normal; 2 (light) when injuries were identifiable but with no severity; 3 (moderate) for significant injury that could increase in severity; 4 (very serious) for very serious injuries that occupy most of the analyzed tissue. These values were added up and determined the level of vaginal irritation as minimum 1–4, average 5–8, moderate 9–11 and severe 12–16 [34].

[2] = at temperatures higher than 40 °C; cited from earlier work
Method: Microbicides must be stable at 37°C for a long period of time since it is the body temperature, and at 65 °C since some manufacturing processes may require high temperatures. Stability at room temperature or at 4 °C is also important since the storage at these temperatures is easier for the user and more affordable than at -20 °C. No statistically significance differences were observed on the anti-HIV-1 activity of P3 peptide stored at 25, 37 and 65 °C for a period of a week. The stability of P3 under different temperatures is much better than other peptide-based microbicide candidates or d ...

## CCCCCCCCCc1ccc(OCCOCCOCCOCCOCCOCCOCCOCCOCCO)cc1 [N9, nonoxynol-9, reference compound]
[1]; 3% N9 in PBS daily for 7 days, three samples
  level of irritation of the vaginal wall: average (average 5–8)
[1]; mouse 13
  Edema/fibrosis: 0
  Epithelial lesion: 3
  Inflammatory infiltrate: 3
  Vascular congestion: 2
  Total Score: 8
[1]; mouse 14
  Edema/fibrosis: 0
  Epithelial lesion: 2
  Inflammatory infiltrate: 3
  Vascular congestion: 2
  Total Score: 7
[1]; mouse 15
  Edema/fibrosis: 0
  Epithelial lesion: 3
  Inflammatory infiltrate: 3
  Vascular congestion: 2
  Total Score: 8

## Spantide II
[2]
  thermal stability: not stable
